Reference: the supplement of paper PMC8882468
± gives the standard deviation of the averaged measurements.

Tests used:
Experiment in all cases: CTG-3D luminescence at 96 h relative to day-0 seeding control (ratio to day 0); higher = more growth / less cytotoxicity; PDxO 3D drug screen (set 2), 96 h, CTG-3D normalised to day-0 seeding control.
HCI-019 = system: HCI-019 (organoid from a triple-negative breast cancer xenograft)
HCI-017.E2 = system: HCI-017.E2 (organoid from an ER-positive breast cancer xenograft)
HCI-023 = system: HCI-023 (organoid from a triple-negative breast cancer xenograft)
HCI-016 = system: HCI-016 (organoid from a triple-negative breast cancer xenograft)
HCI-024 = system: HCI-024 (organoid from a breast cancer xenograft)

CC(C)n1nc(-c2ccc3oc(N)nc3c2)c2c(N)ncnc21 [sapanisertib]
CTG-3D luminescence at 96 h (HCI-019; 12.5 pM, days in culture: 173): 2.61 | CTG-3D luminescence at 96 h (HCI-019; 12.5 pM, days in culture: 194): 1.66 | CTG-3D luminescence at 96 h (HCI-019; 12.5 pM, days in culture: 215): 1.78 | CTG-3D luminescence at 96 h (HCI-019; 0.00025 µM, days in culture: 173): 0.967 | CTG-3D luminescence at 96 h (HCI-019; 0.00025 µM, days in culture: 194): 1.19 | CTG-3D luminescence at 96 h (HCI-019; 0.00025 µM, days in culture: 215): 1.21 | CTG-3D luminescence at 96 h (HCI-019; 0.005 µM, days in culture: 173): 1.48 | CTG-3D luminescence at 96 h (HCI-019; 0.005 µM, days in culture: 194): 1.63 | CTG-3D luminescence at 96 h (HCI-019; 0.005 µM, days in culture: 215): 1.14 | CTG-3D luminescence at 96 h (HCI-019; 0.1 µM, days in culture: 173): 1.01 | CTG-3D luminescence at 96 h (HCI-019; 0.1 µM, days in culture: 194): 0.737 | CTG-3D luminescence at 96 h (HCI-019; 0.1 µM, days in culture: 215): 0.664 | CTG-3D luminescence at 96 h (HCI-019; 1 µM, days in culture: 173): 0.438 | CTG-3D luminescence at 96 h (HCI-019; 1 µM, days in culture: 194): 0.441 | CTG-3D luminescence at 96 h (HCI-019; 1 µM, days in culture: 215): 0.531 | CTG-3D luminescence at 96 h (HCI-019; 10 µM, days in culture: 173): 0.352 | CTG-3D luminescence at 96 h (HCI-019; 10 µM, days in culture: 194): 0.49 | CTG-3D luminescence at 96 h (HCI-019; 10 µM, days in culture: 215): 0.192 | CTG-3D luminescence at 96 h (HCI-019; 100 µM, days in culture: 173): 0.0514 | CTG-3D luminescence at 96 h (HCI-019; 100 µM, days in culture: 194): 0.0673 | CTG-3D luminescence at 96 h (HCI-019; 100 µM, days in culture: 215): 0.0431 | CTG-3D luminescence at 96 h (HCI-019; 625 fM, days in culture: 173): 1.71 | CTG-3D luminescence at 96 h (HCI-019; 625 fM, days in culture: 194): 3.01 | CTG-3D luminescence at 96 h (HCI-019; 625 fM, days in culture: 215): 1.84 | CTG-3D luminescence at 96 h (HCI-017.E2; 12.5 pM): 2.17 ± 0.34 | CTG-3D luminescence at 96 h (HCI-017.E2; 12.5 pM, days in culture: 85): 2.14 | CTG-3D luminescence at 96 h (HCI-017.E2; 0.00025 µM): 2.44 ± 0.51 | CTG-3D luminescence at 96 h (HCI-017.E2; 0.00025 µM, days in culture: 85): 1.78 | CTG-3D luminescence at 96 h (HCI-017.E2; 0.005 µM): 1.79 ± 0.052 | CTG-3D luminescence at 96 h (HCI-017.E2; 0.005 µM, days in culture: 85): 2.08 | CTG-3D luminescence at 96 h (HCI-017.E2; 0.1 µM): 0.877 ± 0.12 | CTG-3D luminescence at 96 h (HCI-017.E2; 0.1 µM, days in culture: 85): 0.908 | CTG-3D luminescence at 96 h (HCI-017.E2; 1 µM): 0.558 ± 0.031 | CTG-3D luminescence at 96 h (HCI-017.E2; 1 µM, days in culture: 85): 0.515 | CTG-3D luminescence at 96 h (HCI-017.E2; 10 µM): 0.399 ± 0.099 | CTG-3D luminescence at 96 h (HCI-017.E2; 10 µM, days in culture: 85): 0.249 | CTG-3D luminescence at 96 h (HCI-017.E2; 100 µM): 0.125 ± 0.061 | CTG-3D luminescence at 96 h (HCI-017.E2; 100 µM, days in culture: 85): 0.14 | CTG-3D luminescence at 96 h (HCI-017.E2; 625 fM): 2.58 ± 0.079 | CTG-3D luminescence at 96 h (HCI-017.E2; 625 fM, days in culture: 85): 2.37 | CTG-3D luminescence at 96 h (HCI-023; 12.5 pM, days in culture: 223): 1.99 | CTG-3D luminescence at 96 h (HCI-023; 12.5 pM, days in culture: 238): 1.38 | CTG-3D luminescence at 96 h (HCI-023; 12.5 pM, days in culture: 252): 2.43 | CTG-3D luminescence at 96 h (HCI-023; 0.00025 µM, days in culture: 223): 3.08 | CTG-3D luminescence at 96 h (HCI-023; 0.00025 µM, days in culture: 238): 1.49 | CTG-3D luminescence at 96 h (HCI-023; 0.00025 µM, days in culture: 252): 1.86 | CTG-3D luminescence at 96 h (HCI-023; 0.005 µM, days in culture: 223): 1.41 | CTG-3D luminescence at 96 h (HCI-023; 0.005 µM, days in culture: 238): 1.44 | CTG-3D luminescence at 96 h (HCI-023; 0.005 µM, days in culture: 252): 1.79 | CTG-3D luminescence at 96 h (HCI-023; 0.1 µM, days in culture: 223): 0.945 | CTG-3D luminescence at 96 h (HCI-023; 0.1 µM, days in culture: 238): 0.777 | CTG-3D luminescence at 96 h (HCI-023; 0.1 µM, days in culture: 252): 1.19 | CTG-3D luminescence at 96 h (HCI-023; 1 µM, days in culture: 223): 0.479 | CTG-3D luminescence at 96 h (HCI-023; 1 µM, days in culture: 238): 0.723 | CTG-3D luminescence at 96 h (HCI-023; 1 µM, days in culture: 252): 0.654 | CTG-3D luminescence at 96 h (HCI-023; 10 µM, days in culture: 223): 0.703 | CTG-3D luminescence at 96 h (HCI-023; 10 µM, days in culture: 238): 0.606 | CTG-3D luminescence at 96 h (HCI-023; 10 µM, days in culture: 252): 0.535 | CTG-3D luminescence at 96 h (HCI-023; 100 µM, days in culture: 223): 0.169 | CTG-3D luminescence at 96 h (HCI-023; 100 µM, days in culture: 238): 0.2 | CTG-3D luminescence at 96 h (HCI-023; 100 µM, days in culture: 252): 0.388 | CTG-3D luminescence at 96 h (HCI-023; 625 fM, days in culture: 223): 2.08 | CTG-3D luminescence at 96 h (HCI-023; 625 fM, days in culture: 238): 1.64 | CTG-3D luminescence at 96 h (HCI-023; 625 fM, days in culture: 252): 1.93 | CTG-3D luminescence at 96 h (HCI-016; 12.5 pM, days in culture: 305): 2.57 | CTG-3D luminescence at 96 h (HCI-016; 12.5 pM, days in culture: 327): 1.38 | CTG-3D luminescence at 96 h (HCI-016; 12.5 pM, days in culture: 341): 2.37 | CTG-3D luminescence at 96 h (HCI-016; 12.5 pM, days in culture: 397): 1.83 | CTG-3D luminescence at 96 h (HCI-016; 0.00025 µM, days in culture: 305): 3.24 | CTG-3D luminescence at 96 h (HCI-016; 0.00025 µM, days in culture: 327): 1.23 | CTG-3D luminescence at 96 h (HCI-016; 0.00025 µM, days in culture: 341): 1.72 | CTG-3D luminescence at 96 h (HCI-016; 0.00025 µM, days in culture: 397): 2.36 | CTG-3D luminescence at 96 h (HCI-016; 0.005 µM, days in culture: 305): 2.48 | CTG-3D luminescence at 96 h (HCI-016; 0.005 µM, days in culture: 327): 1.37 | CTG-3D luminescence at 96 h (HCI-016; 0.005 µM, days in culture: 341): 2.04 | CTG-3D luminescence at 96 h (HCI-016; 0.005 µM, days in culture: 397): 1.47 | CTG-3D luminescence at 96 h (HCI-016; 0.1 µM, days in culture: 305): 1.62 | CTG-3D luminescence at 96 h (HCI-016; 0.1 µM, days in culture: 327): 0.784 | CTG-3D luminescence at 96 h (HCI-016; 0.1 µM, days in culture: 341): 1.14 | CTG-3D luminescence at 96 h (HCI-016; 0.1 µM, days in culture: 397): 1.2 | CTG-3D luminescence at 96 h (HCI-016; 1 µM, days in culture: 305): 0.527 | CTG-3D luminescence at 96 h (HCI-016; 1 µM, days in culture: 327): 0.464 | CTG-3D luminescence at 96 h (HCI-016; 1 µM, days in culture: 341): 0.566 | CTG-3D luminescence at 96 h (HCI-016; 1 µM, days in culture: 397): 0.701 | CTG-3D luminescence at 96 h (HCI-016; 10 µM, days in culture: 305): 0.566 | CTG-3D luminescence at 96 h (HCI-016; 10 µM, days in culture: 327): 0.679 | CTG-3D luminescence at 96 h (HCI-016; 10 µM, days in culture: 341): 0.673 | CTG-3D luminescence at 96 h (HCI-016; 10 µM, days in culture: 397): 0.688 | CTG-3D luminescence at 96 h (HCI-016; 100 µM, days in culture: 305): 0.455 | CTG-3D luminescence at 96 h (HCI-016; 100 µM, days in culture: 327): 0.258 | CTG-3D luminescence at 96 h (HCI-016; 100 µM, days in culture: 341): 0.378 | CTG-3D luminescence at 96 h (HCI-016; 100 µM, days in culture: 397): 0.324 | CTG-3D luminescence at 96 h (HCI-016; 625 fM, days in culture: 305): 3.26 | CTG-3D luminescence at 96 h (HCI-016; 625 fM, days in culture: 327): 1.7 | CTG-3D luminescence at 96 h (HCI-016; 625 fM, days in culture: 341): 2.96 | CTG-3D luminescence at 96 h (HCI-016; 625 fM, days in culture: 397): 2.37 | CTG-3D luminescence at 96 h (HCI-024; 12.5 pM, days in culture: 202): 1.13 | CTG-3D luminescence at 96 h (HCI-024; 12.5 pM, days in culture: 231): 1.11 | CTG-3D luminescence at 96 h (HCI-024; 12.5 pM, days in culture: 254): 2.43 | CTG-3D luminescence at 96 h (HCI-024; 0.00025 µM, days in culture: 202): 0.881 | CTG-3D luminescence at 96 h (HCI-024; 0.00025 µM, days in culture: 231): 1.3 | CTG-3D luminescence at 96 h (HCI-024; 0.00025 µM, days in culture: 254): 1.09 | CTG-3D luminescence at 96 h (HCI-024; 0.005 µM, days in culture: 202): 0.616 | CTG-3D luminescence at 96 h (HCI-024; 0.005 µM, days in culture: 231): 1.01 | CTG-3D luminescence at 96 h (HCI-024; 0.005 µM, days in culture: 254): 1.25 | CTG-3D luminescence at 96 h (HCI-024; 0.1 µM, days in culture: 202): 0.616 | CTG-3D luminescence at 96 h (HCI-024; 0.1 µM, days in culture: 231): 0.69 | CTG-3D luminescence at 96 h (HCI-024; 0.1 µM, days in culture: 254): 1.1 | CTG-3D luminescence at 96 h (HCI-024; 1 µM, days in culture: 202): 0.515 | CTG-3D luminescence at 96 h (HCI-024; 1 µM, days in culture: 231): 0.589 | CTG-3D luminescence at 96 h (HCI-024; 1 µM, days in culture: 254): 0.518 | CTG-3D luminescence at 96 h (HCI-024; 10 µM, days in culture: 202): 0.634 | CTG-3D luminescence at 96 h (HCI-024; 10 µM, days in culture: 231): 0.241 | CTG-3D luminescence at 96 h (HCI-024; 10 µM, days in culture: 254): 0.541 | CTG-3D luminescence at 96 h (HCI-024; 100 µM, days in culture: 202): 0.155 | CTG-3D luminescence at 96 h (HCI-024; 100 µM, days in culture: 231): 0.0656 | CTG-3D luminescence at 96 h (HCI-024; 100 µM, days in culture: 254): 0.118 | CTG-3D luminescence at 96 h (HCI-024; 625 fM, days in culture: 202): 1.14 | CTG-3D luminescence at 96 h (HCI-024; 625 fM, days in culture: 231): 0.868 | CTG-3D luminescence at 96 h (HCI-024; 625 fM, days in culture: 254): 1.6
